# Where two headings read alike, the source gives them in different places.
# Experiments:
# [1] = test system: luciferase expression in the liver; experiment: In vivo luciferase mRNA expression rodent model (LNP, liver luciferase); design: species or system C57BL/6 mice; conditions: tail vein, liver 4 hours; for Liver Luc @ 0.3 mg/kg (ng luc/g liver): 0.3 mg mRNA/kg; for Liver Luc @ 1.0 mg/kg (ng luc/g liver): 1.0 mg mRNA/kg
# Method: Cationic lipid (MC3), DSPC, cholesterol and PEG-lipid were solubilized in ethanol at a molar ratio of 50:10:38.5:1.5. Lipid nanoparticles (LNP) were prepared at a total lipid to mRNA weight ratio of approximately 10:1 to 30:1. Briefly, the mRNA was diluted to 0.2 mg/mL in 10 to 50 mM citrate buffer, pH 4. Syringe pumps were used to mix the ethanolic lipid solution with the mRNA aqueous solution at a ratio of about 1:5 to 1:3 (vol/vol) with total flow rates above 15 ml/min. The ethanol was then removed and the external buffer replaced with PBS by dialysis. Finally, the lipid nanoparticles were filtered through a 0.2 μm pore sterile filter. Lipid nanoparticle particle size was 70-90 nm diameter as determined by quasi-elastic light scattering using a Nicomp 370 submicron particle sizer (Santa Barbara, Calif.).
# Studies were performed in 6-8 week old female C57BL/6 mice (Charles River) according to guidelines established by an institutional animal care committee (ACC) and the Canadian Council on Animal Care (CCAC). Varying doses of mRNA-lipid nanoparticle were systemically administered by tail vein injection and animals euthanized at specific time points (1, 2, 4, 8 and 24 hrs) post-administration. Liver and spleen were collected in pre-weighted tubes, weights determined, immediately snap frozen in liquid nitrogen and stored at −80° C. until processing for analysis.
# For liver, approximately 50 mg was dissected for analyses in a 2 mL FastPrep tubes (MP Biomedicals, Solon Ohio). ¼″ ceramic sphere (MP Biomedicals) was added to each tube and 500 μL of Glo Lysis Buffer—GLB (Promega, Madison Wis.) equilibrated to room temperature was added to liver tissue. Liver tissues were homogenized with the FastPrep24 instrument (MP Biomedicals) at 2×6.0 m/s for 15 seconds. Homogenate was incubated at room temperature for 5 minutes prior to a 1:4 dilution in GLB and assessed using SteadyGlo Luciferase assay system (Promega). Specifically, 50 μL of diluted tissue homogenate was reacted with 50 μL of SteadyGlo substrate, shaken for 10 seconds followed by 5 minute incubation and then quantitated using a CentroXS^3 LB 960 luminometer (Berthold Technologies, Germany). The amount of protein assayed was determined by using the BCA protein assay kit (Pierce, Rockford Ill.). Relative luminescence units (RLU) were then normalized to total ug protein assayed. To convert RLU to ng luciferase a standard curve was generated with QuantiLum Recombinant Luciferase (Promega). Based in the data provided in FIG. 1, the four-hour time point was chosen for efficacy evaluation of the lipid formulations (see EXAMPLE 48).
# The FLuc mRNA (L-6107) from Trilink Biotechnologies will express a luciferase protein, originally isolated from the firefly, Photinus pyralis. FLuc is commonly used in mammalian cell culture to measure both gene expression and cell viability. It emits bioluminescence in the presence of the substrate, luciferin. This capped and polyadenylated mRNA is fully substituted with 5-methylcytidine and pseudouridine.
# The cationic lipids shown in Table 2 have previously been tested with nucleic acids. For comparative purposes, these lipids were also used to formulate lipid nanoparticles containing the FLuc mRNA (L-6107) using an in line mixing method, as described in EXAMPLE 47 and in PCT/US10/22614, which is hereby incorporated by reference in its entirety. Lipid nanoparticles were formulated using the following molar ratio: 50% Cationic lipid/10% distearoylphosphatidylcholine (DSPC)/38.5% Cholesterol/1.5% PEG lipid (“PEG-DMG”, i.e., (1-(monomethoxy-polyethyleneglycol)-2,3-dimyristoylglycerol, with an average PEG molecular weight of 2000). Relative activity was determined by measuring luciferase expression in the liver 4 hours following administration via tail vein injection as described in EXAMPLE 47. The activity was compared at a dose of 0.3 and 1.0 mg mRNA/kg and expressed as ng luciferase/g liver measured 4 hours after administration, as described in EXAMPLE 47. […]
# [2] = pKa of formulated cationic lipids in lipid nanoparticles (TNS fluorescence assay); format: physicochemical
# Method: As described elsewhere, the pKa of formulated cationic lipids is correlated with the effectiveness of LNPs for delivery of nucleic acids (see Jayaraman et al, Angewandte Chemie, International Edition (2012), 51(34), 8529-8533; Semple et al, Nature Biotechnology 28, 172-176 (2010)). The preferred range of pKa is ˜5 to ˜7. […] Lipid nanoparticles comprising of cationic lipid/DSPC/cholesterol/PEG-lipid (50/10/38.5/1.5 mol %) in PBS at a concentration of 0.4 mM total lipid are prepared using the in-line process as described in EXAMPLE 47. TNS was prepared as a 100 μM stock solution in distilled water. Vesicles were diluted to 24 μM lipid in 2 mL of buffered solutions containing, 10 mM HEPES, 10 mM MES, 10 mM ammonium acetate, 130 mM NaCl, where the pH ranged from 2.5 to 11. An aliquot of the TNS solution was added to give a final concentration of 1 μM and following vortex mixing fluorescence intensity was measured at room temperature in a SLM Aminco Series 2 Luminescence Spectrophotometer using excitation and emission wavelengths of 321 nm and 445 nm. A sigmoidal best fit analysis was applied to the fluorescence data and the pKa was measured as the pH giving rise to half-maximal fluorescence intensity (see FIG. 2).
# [3] = test system: hFIX protein in mouse plasma; experiment: LNP delivery of human FIX mRNA, hFIX protein in mouse plasma by ELISA; format: in vivo; conditions: for Human Factor IX @ 0.3 mg/kg (ng mL in plasma): 0.3 mg/kg hFIX mRNA LNP; for Human Factor IX @ 0.3 mg/kg (ng mL in plasma) / Human Factor IX @ 1.0 mg/kg (ng mL in plasma): ELISA; for Human Factor IX @ 1.0 mg/kg (ng mL in plasma): 1.0 mg/kg hFIX mRNA LNP; for measured levels of hFIX expression (assessment): hFIX mRNA LNPs
# Method: The LNPs with cationic lipids shown in Table 7 are formulated with mRNA coding for human FIX (e.g. TriLink Biotechnologies product L-6110) using the following molar ratio of lipids: 50% lipid/10% distearoylphosphatidylcholine (DSPC)/38.5% Cholesterol/1.5% PEG-lipid as described in EXAMPLE 47. Plasma protein is analyzed by ELISA using a commercially available kit (e.g. Abcam ab108831) as per the suppliers instructions. […] The duration of the hFIX at these levels is ˜15 hours or longer.
# [4] = test system: cherry red (CR) red fluorescent protein expression in liver; experiment: LNP activity using cherry red (CR) mRNA, liver sections by confocal fluorescence microscopy; format: in vivo, C57BL/6 mice
# Method: LNPs using compound 6 are formulated as described in EXAMPLE 47 with mRNA coding for a red fluorescent protein called cherry red (CR, e.g. TriLink Biotechnologies product L-6113). In vivo studies are conducted as described in EXAMPLE 47 and sections of liver tissue are processed and observed by confocal fluorescence microscopy at 4, 6 and 24 hours post administration. Expression levels peaked at around 6 hours and maintained to at least 24 hours.
# [5] = Table 3, LNP with 1.5% PEG-DMA (42-6), FLuc mRNA
# [6] = Table 5, LNP with 1.5% PEG-lipid (42-6)
# [7] = Table 3, in LNP cationic lipid/DSPC/cholesterol/PEG-lipid 50/10/38.5/1.5 mol %, read-out: pKa
# [8] = Table 6, LNP with 1.5% PEG-lipid (42-6)
"pKa [2, 7]",Structure (SMILES),"Liver Luc @ 0.3 mg/kg (ng luc/g liver) [1, 5] [ng luc/g liver]","Liver Luc @ 1.0 mg/kg (ng luc/g liver) [1, 5] [ng luc/g liver]",Human Factor IX @ 0.3 mg/kg (ng mL in plasma) [3] [ng·mL],Human Factor IX @ 1.0 mg/kg (ng mL in plasma) [3] [ng·mL],other results
5.82,CCCCCCCCCCCCC(CCCCCCCCCC)C(=O)OCCCCCCN(CCCCCCOC(=O)C(CCCCCCCCCC)CCCCCCCCCCCC)CCN(C)C (stereo not drawn) [Compound 39],36 ± 13,326 ± 81,–,–,–
6.38,CCCCCCCCCCC(CCCCCCCC)C(=O)OCCCCCCCCCN(CCCCCCCCCOC(=O)C(CCCCCCCC)CCCCCCCCCC)CCN(C)C (stereo not drawn) [Compound 40],236 ± 71,1704 ± 571,–,–,–
5.91,CCCCCCCCCCCCC(CCCCCCCCCC)C(=O)OCCCCCCCCCN(CCCCCCCCCOC(=O)C(CCCCCCCCCC)CCCCCCCCCCCC)CCN(C)C (stereo not drawn) [Compound 41],63 ± 27,799 ± 619,–,–,–

# Second part, the compound before the results:
Structure (SMILES),"pKa [2, 7]","Liver Luc @ 0.3 mg/kg (ng luc/g liver) [1, 5] [ng luc/g liver]","Liver Luc @ 1.0 mg/kg (ng luc/g liver) [1, 5] [ng luc/g liver]",Human Factor IX @ 0.3 mg/kg (ng mL in plasma) [3] [ng·mL],Human Factor IX @ 1.0 mg/kg (ng mL in plasma) [3] [ng·mL],other results
CCCCCCCCC(CCCCCC)C(=O)OCCCCCCN(CCCCCCOC(=O)C(CCCCCC)CCCCCCCC)CCN(C)C (stereo not drawn) [Compound 5],6.28,1571 ± 414,12900 ± 4083,1097 ± 357,4556 ± 686,"Liver Luc @ 0.3 mg/kg (ng luc/g liver) [1, 6]: 1571 ± 414 ng luc/g liver; Liver Luc @ 1.0 mg/kg (ng luc/g liver) [1, 6]: 12900 ± 4083 ng luc/g liver; pKa ([2]; Table 5, in LNP): 6.28; measured levels of hFIX expression (assessment) [3]: clinically relevant"
CCCCCCCCC(CCCCCC)C(=O)OCCCCCCCCCN(CCCCCCCCCOC(=O)C(CCCCCC)CCCCCCCC)CCN(C)C (stereo not drawn) [Compound 6],6.12,2015 ± 135,16006 ± 2487,713 ± 148,2697 ± 345,"Liver Luc @ 0.3 mg/kg (ng luc/g liver) [1, 6]: 2015 ± 135 ng luc/g liver; Liver Luc @ 1.0 mg/kg (ng luc/g liver) [1, 6]: 16006 ± 2487 ng luc/g liver; Liver Luc @ 0.3 mg/kg (ng luc/g liver) [1, 8]: 2015 ± 135 ng luc/g liver; Liver Luc @ 1.0 mg/kg (ng luc/g liver) [1, 8]: 16006 ± 2487 ng luc/g liver; pKa ([2]; Table 5, in LNP): 6.12; pKa ([2]; Table 6, in LNP): 6.12; measured levels of hFIX expression (assessment) [3]: clinically relevant; time of peak expression levels ([4]; liver sections observed at 4, 6 and 24 hours post administration): around 6 hours; distribution of expression in tissue sections ([4]; liver sections, confocal fluorescence microscopy): homogeneous expression throughout the liver; expression maintained to ([4]; liver sections, post administration): at least 24 hours"
CCCCCCCCC(CCCCCC)COC(=O)CCCCCN(CCCCCC(=O)OCC(CCCCCC)CCCCCCCC)CCN(C)CC (stereo not drawn) [Compound 33],6.27,711 ± 272,4448 ± 512,–,–,–
CC(C)=CCCC(C)CC(=O)OCCCCCCCCCCCCN(CCCCCCCCCCCCOC(=O)CC(C)CCC=C(C)C)CCN(C)C (stereo not drawn) [Compound 35],6.21,35 ± 15,101 ± 69,–,–,–
CCCCCCC(CCCC)C(=O)OCCCCCCCCCN(CCCCCCCCCOC(=O)C(CCCC)CCCCCC)CCN(C)C (stereo not drawn) [Compound 38],6.24,977 ± 336,7135 ± 1020,–,–,–
"CCCCC/C=C\C/C=C\CCCCCCCCC(CCCCCCCC/C=C\C/C=C\CCCCC)OC(=O)CCCN(C)C [MC3, reference compound]",–,–,–,336 ± 21,1154 ± 25,"pKa ([2]; Table 5, in LNP, read-out: pKa): 6.09"
